Data on one molecule can be found in BindingDB's records for patent US20250122221 (Nanjing Zaiming Pharmaceutical, 2025).

For this experiment, the target named is DNA polymerase theta (Homo sapiens, UniProt O75417). Put plainly: POLQ Enzyme Activity Inhibition Assay. The method, then:
The compounds to be tested were diluted to different concentrations in dimethyl sulfoxide (DMSO) using the Echo 650 pipetting system, and transferred to a 384-well plate, 20 μL/well of 100 nM POLQ was added, and the mixture was incubated at room temperature for 15 minutes. […] 20 μL/well of reaction mixture solution was added to start the enzyme reaction. […] The concentration range was from 10 μM to 0.0005 μM, and the final concentration of DMSO in the system was 0.2% v/v. The 384-well plate was reacted at room temperature for 20 minutes, and then the OD value at 340 nm was read with an Envision microplate reader.

For orientation: IC50 means the point on the concentration scale where inhibition reaches its midpoint. Read a high IC50 as weaker potency.

DNA polymerase theta, sequence (O75417 whole entry): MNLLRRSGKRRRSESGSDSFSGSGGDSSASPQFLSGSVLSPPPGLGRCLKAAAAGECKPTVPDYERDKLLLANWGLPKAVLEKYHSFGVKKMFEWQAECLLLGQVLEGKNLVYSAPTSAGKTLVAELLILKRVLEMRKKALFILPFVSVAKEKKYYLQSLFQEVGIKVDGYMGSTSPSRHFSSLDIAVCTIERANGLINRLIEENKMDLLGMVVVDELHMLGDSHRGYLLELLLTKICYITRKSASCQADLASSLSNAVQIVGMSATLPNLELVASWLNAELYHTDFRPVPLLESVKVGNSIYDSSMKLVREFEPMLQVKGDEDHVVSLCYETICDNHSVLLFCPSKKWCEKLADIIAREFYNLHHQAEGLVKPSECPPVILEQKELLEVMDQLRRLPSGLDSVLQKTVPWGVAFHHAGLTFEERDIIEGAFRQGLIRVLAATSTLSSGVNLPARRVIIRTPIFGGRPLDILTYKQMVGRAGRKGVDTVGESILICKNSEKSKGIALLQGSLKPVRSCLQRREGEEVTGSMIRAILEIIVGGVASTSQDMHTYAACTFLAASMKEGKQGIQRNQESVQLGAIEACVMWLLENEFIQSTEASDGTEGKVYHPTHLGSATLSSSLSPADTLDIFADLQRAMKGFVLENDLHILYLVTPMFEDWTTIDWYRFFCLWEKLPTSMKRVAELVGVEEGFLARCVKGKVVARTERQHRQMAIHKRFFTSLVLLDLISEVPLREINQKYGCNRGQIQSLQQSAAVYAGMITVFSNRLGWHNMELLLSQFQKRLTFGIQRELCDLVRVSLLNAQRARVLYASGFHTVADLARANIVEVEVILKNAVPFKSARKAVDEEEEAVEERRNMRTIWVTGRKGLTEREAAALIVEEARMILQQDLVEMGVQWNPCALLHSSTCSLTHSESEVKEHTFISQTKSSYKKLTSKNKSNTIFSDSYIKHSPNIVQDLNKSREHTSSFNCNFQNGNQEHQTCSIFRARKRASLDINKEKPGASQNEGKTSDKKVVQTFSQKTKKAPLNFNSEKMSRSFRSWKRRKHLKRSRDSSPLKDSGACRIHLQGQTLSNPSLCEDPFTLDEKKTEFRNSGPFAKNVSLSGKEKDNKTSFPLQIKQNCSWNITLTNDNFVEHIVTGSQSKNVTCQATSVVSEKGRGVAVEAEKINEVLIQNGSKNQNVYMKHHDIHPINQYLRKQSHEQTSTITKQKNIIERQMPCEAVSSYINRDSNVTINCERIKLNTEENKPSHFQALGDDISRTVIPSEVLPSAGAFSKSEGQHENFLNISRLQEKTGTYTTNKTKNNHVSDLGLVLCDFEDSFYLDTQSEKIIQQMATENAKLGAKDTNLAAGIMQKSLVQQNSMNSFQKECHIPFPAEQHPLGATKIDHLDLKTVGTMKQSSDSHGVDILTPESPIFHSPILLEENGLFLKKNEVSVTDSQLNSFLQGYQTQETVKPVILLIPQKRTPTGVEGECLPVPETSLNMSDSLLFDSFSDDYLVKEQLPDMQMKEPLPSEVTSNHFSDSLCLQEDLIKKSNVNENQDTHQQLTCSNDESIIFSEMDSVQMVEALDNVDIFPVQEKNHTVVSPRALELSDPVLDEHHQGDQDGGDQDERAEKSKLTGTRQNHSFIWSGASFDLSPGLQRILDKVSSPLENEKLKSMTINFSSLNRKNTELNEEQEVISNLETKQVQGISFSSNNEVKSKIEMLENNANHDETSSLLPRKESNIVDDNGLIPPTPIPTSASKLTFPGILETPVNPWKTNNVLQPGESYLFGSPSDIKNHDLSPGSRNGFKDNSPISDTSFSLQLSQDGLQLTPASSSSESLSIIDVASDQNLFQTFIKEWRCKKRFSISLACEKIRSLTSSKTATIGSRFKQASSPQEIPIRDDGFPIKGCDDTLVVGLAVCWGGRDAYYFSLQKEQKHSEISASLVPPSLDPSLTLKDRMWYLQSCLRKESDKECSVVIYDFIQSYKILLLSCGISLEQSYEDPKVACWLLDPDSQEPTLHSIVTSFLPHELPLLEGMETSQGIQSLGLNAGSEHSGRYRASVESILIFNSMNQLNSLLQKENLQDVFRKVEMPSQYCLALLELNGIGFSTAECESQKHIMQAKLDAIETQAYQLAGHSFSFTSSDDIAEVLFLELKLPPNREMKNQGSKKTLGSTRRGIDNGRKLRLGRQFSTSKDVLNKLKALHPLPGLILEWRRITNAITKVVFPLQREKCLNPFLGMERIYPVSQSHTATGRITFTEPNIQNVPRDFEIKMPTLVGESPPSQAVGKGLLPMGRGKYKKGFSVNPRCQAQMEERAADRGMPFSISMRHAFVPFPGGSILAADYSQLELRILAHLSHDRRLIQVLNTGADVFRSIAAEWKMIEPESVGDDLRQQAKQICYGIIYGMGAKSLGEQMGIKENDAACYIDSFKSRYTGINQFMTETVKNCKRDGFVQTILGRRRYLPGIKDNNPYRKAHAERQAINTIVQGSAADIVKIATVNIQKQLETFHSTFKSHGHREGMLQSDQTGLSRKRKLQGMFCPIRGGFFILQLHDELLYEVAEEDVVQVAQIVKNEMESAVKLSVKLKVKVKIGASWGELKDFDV

For the molecule `COc1ccccc1-c1cc2c(cc1C(=O)Nc1nc3ncc(-c4ccc(C#N)cc4)nc3s1)OCO2` [US20250122221, Compound 56], the IC50 was less than 100 nM.
